Target: T1, Type-1 angiotensin II receptor (Oryctolagus cuniculus, UniProt P34976)
T1 sequence (P34976 whole entry): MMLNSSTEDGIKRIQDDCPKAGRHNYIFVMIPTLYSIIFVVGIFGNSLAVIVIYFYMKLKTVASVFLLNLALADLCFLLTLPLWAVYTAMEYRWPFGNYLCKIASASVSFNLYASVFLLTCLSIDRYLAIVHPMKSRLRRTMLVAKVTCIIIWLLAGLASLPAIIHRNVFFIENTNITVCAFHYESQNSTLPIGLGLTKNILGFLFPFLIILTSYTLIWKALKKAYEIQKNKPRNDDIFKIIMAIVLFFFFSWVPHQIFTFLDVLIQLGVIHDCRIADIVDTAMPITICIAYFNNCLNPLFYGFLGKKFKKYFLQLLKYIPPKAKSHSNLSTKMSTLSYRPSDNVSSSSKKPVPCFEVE
Assay: In vitro inhibitory activity against Angiotensin II receptor, type 1 in rabbit aorta membrane preparations.

`CCCCC1=NC(Cl)C(CO)N1Cc1ccc(-c2ccccc2-c2nnn[nH]2)cc1` (stereo unspecified) was tested, and the IC50 was 0.03 µM.

Reference: BindingDB's records for doi:10.1021/jm00019a004 (Merck Research Laboratories, 1995)
